The source of these data is paper PMC9036094, “Antigen-derived peptides engage the ER stress sensor IRE1α to curb dendritic cell cross-presentation” (The Journal of Cell Biology, 2022).

One assay deals with ATF6 in BMDCs. The assay can be described thus: ATF6 activation in BMDCs (immunoblot, proteolytic processing). In kind it is cell-based, mouse. The following applies: MG132 5 μM or ovalbumin 500 μg/ml, in words. The procedure:
(§1) Figure S1. Antigen pulsing of BMDCs activates IRE1α. (A) BMDCs were treated with MG132 (5 μM) or ovalbumin (500 μg/ml) for indicated time points and analyzed by IB. (B) BMDCs were pulsed with ovalbumin (500 μg/ml) and G9668 (3 μM) for indicated time periods and analyzed by IB. (C) Molecular structure, potency, and kinase selectivity of G9668. (D) Schematic representation of G9668 interaction with 220 kinases at 1 μM. Size and color of circles represent interaction strength. Analysis was conducted by KinomeScan. (E) BMDCs were pulsed for 4 h with APC-tagged ovalbumin or soluble CD4-Fc protein (500 μg/ml) with amiloride (10 μM); uptake of protein was assayed by flow cytometry (n = 3). (F) WT or MyD88 KO Flt3L-derived BMDCs were pulsed with ovalbumin (500 μg/ml) or soluble CD4-Fc protein (500 μg/ml), or treated with LPS (10 μg/ml) for 4 h and analyzed by IB. (G) MEFs and BMDCs were pulsed with ovalbumin or treated with Tg (100 nM) for 4 h and analyzed by IB. Images in A, B, F, and G represent at least two similar experiments, and molecular weights represent kD; E bar graphs represent mean ± SD from three independent biological repeats. Analysis for E was performed using unpaired, two-tailed t test; *, P ≤ 0.05; **, P ≤ 0.01. Source data are available for this figure: SourceData FS1. […]
Background: A western blot detects proteins with antibodies after separation by electrophoresis.

The subject of assay [1] is IRE1α (XBP1s, pIRE1α) in BMDCs. The assay can be described thus: IRE1α activation in BMDCs (immunoblot). In kind it is cell-based, mouse. The following applies: in words; for IRE1α activation: GM-CSF + IL-4 BMDCs, immunoblot for XBP1s/pIRE1α. The method, then:
Figure 1. Antigen pulsing of BMDCs activates IRE1α. (A) BMDCs were pulsed with ovalbumin (starting at 62.5 μg/ml and sequentially doubled) and analyzed by immunoblot (IB) for the indicated markers. (B) BMDCs were pulsed with ovalbumin (starting at 500 μg/ml and sequentially halved) or […] (1 μM), or stimulated with tunicamycin (1 μg/ml) or poly-I:C (25 μg/ml) for 4 h, and analyzed by IB. (C) BMDCs were pulsed with ovalbumin (500 μg/ml) for indicated time points and analyzed by IB. (D) BMDCs were pulsed for 4 h with ovalbumin or lysates derived from the indicated cell lines (500 μg/ml protein) and analyzed by IB. […] (F) Upon removal from bone marrow, total bone marrow cells were transfected with non-targeting control (NTC) or TAP1-targeting gRNAs, along with CRISPR/Cas9 delivery constructs. Cells were then subjected to standard BMDC-differentiation protocol, pulsed with ovalbumin (500 μg/ml) for 4 h, and analyzed by IB. All IB images are representative of at least two similar experiments, and molecular weights represent kD. Source data are available for this figure: SourceData F1.
For purification and differentiation of BMDCs, the femur and tibia bones of C57BL/6 mice were flushed with sterile PBS, and bone marrow cells were then cultured in RPMI1640 media as described above and further supplemented with […] β2-mercaptoethanol (Sigma-Aldrich), 20 ng/ml GM-CSF (BioLegend), and 10 ng/ml IL-4 (BioLegend) for 9 d, with media being replenished every 3 d. Where indicated, Flt3L-BMDCs were similarly generated using media supplemented with 200 ng/ml recombinant mouse Flt3L (PeproTech; [Brasel et al., 2000]). After 9 d of culture, BMDCs were routinely verified to be >90% CD11c^+ MHC-II^high by flow cytometry analysis.
Thapsigargin (Sigma-Aldrich) was used at 100 nM, tunicamycin (Sigma-Aldrich) was used at 5 μg/ml, MG132 (Sigma-Aldrich) was used at 5 μM, Amiloride (Sigma-Aldrich) was used at 10 μM, actinomycin D (Sigma-Aldrich) was used at 4 μg/ml, LPS (Sigma-Aldrich) was used at 10 μg/ml, and poly-I:C (Sigma-Aldrich) was used at 25 μg/ml. Ovalbumin (Sigma-Aldrich), EF-OVA (EndoFit; InvivoGen), […] peptide (Sigma-Aldrich), and human CD4-Fc fusion protein (generated in-house at Genentech) were dissolved in PBS prior to pulsing and used at indicated concentrations.
Cells were lysed in PBS solution supplemented with 1X radioimmunoprecipitation assay buffer (Millipore) and 2X Halt protease-phosphatase inhibitor cocktail (Thermo Fisher Scientific). Upon clearance, samples were analyzed by SDS-PAGE, electrotransferred to nitrocellulose membranes (Invitrogen), and blocked by 5% powdered milk in PBSt (PBS supplemented with 0.1% tween) solution. Development was conducted with ECL reagent (Thermo Fisher Scientific) and imaging was performed with the ChemiDoc ZRS+ imager (Bio-Rad). Antibodies used for Western blot analysis include IRE1α (3294, rabbit; Cell Signaling Technology), β-actin (5125, rabbit; Cell Signaling), GAPDH (97166, mouse; Cell Signaling), ATF6 (66563-1-Ig, mouse; ProteinTech), TAP1 (12341, rabbit; Cell Signaling), CHOP (2895, mouse; Cell Signaling), ATF4 (11815, rabbit; Cell Signaling), ovalbumin (P1-196, rabbit; Thermo Fisher Scientific), human Fc (ab977225, rabbit; Abcam), Myc tag (2272, rabbit; Cell Signaling), and biotin (5597, rabbit; Cell Signaling). IRE1α lumenal domain (mouse), XBP1s (rabbit), and pIRE1α (rabbit) antibodies were generated at Genentech. Secondary antibodies used were for mouse (715-035-150; The Jackson Laboratory) and rabbit (711-035-152; The Jackson Laboratory).

The test system of assay [2] is PERK (ATF4, CHOP) in BMDCs. The assay can be described thus: PERK activation in BMDCs (immunoblot of ATF4 and CHOP). It is filed as cell-based, mouse. Conditions: MG132 5 μM or ovalbumin 500 μg/ml, in words. The procedure: as §1
Assay [3] relates to IRE1α in MyD88 KO Flt3L-derived BMDCs. As to the kind of experiment: IRE1α activation in MyD88 KO Flt3L-derived BMDCs (immunoblot). It is filed as cell-based, mouse. Conditions: ovalbumin 500 μg/ml or LPS 10 μg/ml, 4 h. The method, then: as §1
The target in the next assay is heat-denatured ovalbumin (UniProt P01012). As to the kind of experiment: ELISA; native or heat-denatured ovalbumin coated on a 96-well plate, blocked with 1% BSA; IRE1α LD-Fc (10 μg/ml) in PBS with 20 mM Hepes, 100 mM KOAc, 0.2% tween-20, 2 h, room temperature; detection with HRP-conjugated anti-human Fc antibody. For orientation: An ELISA detects its analyte on a solid surface through an enzyme-linked reagent.

For assay [4], the system named is IRE1α LD-Fc. The assay can be described thus: Plate-based ovalbumin binding to IRE1α LD-Fc. More on the design: species or system human. The following applies: 2 h, room temperature. The procedure:
(§2) For experiments testing ovalbumin binding, a human LD-Fc was used at indicated concentrations. LD-Fc is comprised of amino acids M1-D443 of IRE1α fused C-terminally to a linker ([…]) followed by the human IgG1 hinge and Fc portion. Ovalbumin (Sigma-Aldrich) was dissolved in sterile PBS and used in native state or denatured as indicated by incubation at 95°C buffer for 10 min.
For plate-based binding experiments, native or heat-denatured ovalbumin at indicated concentrations was bound to a flat-bottom 96-well plate (Corning Inc.) with coating buffer (BioLegend), washed with PBSt, blocked with 1% BSA in PBS, and subsequently incubated with IRE1α LD-Fc (10 μg/ml) in binding buffer composed of PBS with 20 mM Hepes, 100 mM KOAc, and 0.2% tween-20 for 2 h at room temperature. Plates were washed again with PBSt and incubated with an anti-human Fc HRP-conjugated antibody (ab977225; Abcam). Development was performed with 3,3′,5,5′-Tetramethylbenzidine solution and terminated with Stop solution (BioLegend). Readings were taken with a SpectraMax M2 spectrometer (Molecular Devices).

In assay [5] the test system is IRE1α LD-Fc. The assay can be described thus: Co-immunoprecipitation of ovalbumin with IRE1α LD-Fc. In kind it is binding, human. Conditions: LD-Fc 10 μg/ml, 2 h; ovalbumin 1-300 μg/ml; in words. The method, then: as §2
For co-immunoprecipitation experiments, IRE1α LD-Fc (10 μg/ml) and ovalbumin (indicated concentrations) were co-incubated in binding buffer (as described above) for 2 h and then immunoprecipitated with anti-IRE1α LD antibody (made in-house at Genentech), conjugated to sepharose beads, overnight at 4°C. Beads were subsequently washed four times with lysis buffer and boiled in SDS sample buffer for 10 min. Samples were then analyzed by SDS-PAGE followed by immunoblot.

Peptide text beside a SMILES is read from it. * marks the point of attachment. Cbz = O=C(OCc1ccccc1)*

Consider `CC(C)C[C@@H](C=O)NC(=O)[C@H](CC(C)C)NC(=O)[C@H](CC(C)C)NC(=O)OCc1ccccc1` [MG132, reference compound] (Cbz-Leu-Leu-Leu-aldehyde), for which the ATF6 activation entry with ATF6 in BMDCs is given as “robust activation”. The IRE1α activation entry in assay [1] is reported as “robust activation”. Besides, the PERK activation result in assay [2] is reported as “robust activation”.

Consider tunicamycin [reference compound], for which, in assay [1], the IRE1α activation result was “potent pharmacological ER-stressor”.

“SIINFEKL [ovalbumin-derived octapeptide, reference compound]”: the IRE1α activation entry in assay [1] is given as “little effect on IRE1α activity”.

With “lipopolysaccharide [LPS, reference compound]”, the “IRE1α activation, MyD88 KO BMDCs” value in assay [3] was “failed to activate IRE1α”.

As to `N=C(N)NC(=O)c1nc(Cl)c(N)nc1N` [amiloride, reference compound], the “block of antigen-induced IRE1α activation” value in assay [1] (BMDCs pulsed with antigen 500 μg/ml, G9668 3 μM or amiloride 10 μM) was “blocked antigen-induced IRE1α stimulation in BMDCs”.

In general, Kd refers to the equilibrium constant for the complex coming apart. The molecule “IRE1α lumenal domain fused to an Fc tag (IRE1α LD-Fc) (from UniProt O75460 19-443) (Fc fusion)” gave a Kd in the assay with heat-denatured ovalbumin of 300 µM.

In the case of “polyinosinic:polycytidylic acid [poly-I:C, reference compound]”, the IRE1α activation result in assay [1] is given as “much weaker IRE1α activation than did the potent pharmacological ER-stressor tunicamycin”.

B1: heat-denatured ovalbumin: ovalbumin denatured by incubation at 95°C for 10 min (protein)
chain: MGSIGAASMEFCFDVFKELKVHHANENIFYCPIAIMSALAMVYLGAKDSTRTQINKVVRFDKLPGFGDSIEAQCGTSVNVHSSLRDILNQITKPNDVYSFSLASRLYAEERYPILPEYLQCVKELYRGGLEPINFQTAADQARELINSWVESQTNGIIRNVLQPSSVDSQTAMVLVNAIVFKGLWEKAFKDEDTQAMPFRVTEQESKPVQMMYQIGLFRVASMASEKMKILELPFASGTMSMLVLLPDEVSGLEQLESIINFEKLTEWTSSNVMEERKIKVYLPRMKMEEKYNLTSVLMAMGITDVFSSSANLSGISSAESLKISQAVHAAHAEINEAGREVVGSAEAGVDAASVSEEFRADHPFLFCIKHIATNAVLFFGRCVSP
Regarding B1, the “binding to immobilized IRE1α LD-Fc” value in the assay with IRE1α LD-Fc [4] (LD-Fc 10 μg/ml, in words) is “specific and saturable binding”. The dissociation constant Kd on IRE1α LD-Fc [4] (plate-based, IRE1α LD-Fc 10 μg/ml, estimated, read-out: equilibrium dissociation constant (Kd)) is around 300 µM. For the same molecule, in the assay with IRE1α LD-Fc [5], the “co-immunoprecipitation with IRE1α LD-Fc” value is “concentration-dependent association”.
